Experiments:
[1] = test system: SIVmac239 or virus isolates in CEM ×174 cells; test: SIV replication in CEM ×174 cells, SIV p27 core antigen assay; format: cell-based
Excerpt: Infected cell cultures described in FIG. 4 were used for determination of supernatant virus titers by SIV p27 core antigen assay as described in Example XIV. The ordinate represents p27 ELISA performed on day 10 of the assay and the abscissa represents the concentration of INO2 BA alone (rear rows in panels A, B and C) and in combination with BSO (front rows in panels A, B and C).
CEM ×174 cells (3×10^5 /ml) were infected with 3.75 TCID50 /ml (50% tissue culture infectious dosage per ml of cell suspension) stock solution of SIVmac239 or virus isolates from SIVmac239-infected rhesus macaques on day 0. Uniform infection of cells was ensured by the infection of one cell population only per virus preparation. Three days post-infection, the cells were distributed (500 μl/well) into individual wells of a 24-well plate. Fresh medium containing INO2 BA concentrations ranging from 0 to 300 μM and/or BSO concentrations ranging from 0 to 0.25 mM were added to establish final 1-ml reaction volumes, and the cultures were further incubated for 4 days. The wells were then replenished with fresh CEM ×174 cells (3×10^5 /ml), INO2 BA and/or BSO were re-added at the same concentrations as in the original incubates, and incubation was continued for an additional 3 days. This procedure intends to mimic conditions of in vivo chemotherapy. Cell viability and virus titers in the supernatant were determined on day 10 (3 days after the addition of new cells) by the tetrazolium (MTT) method of Hansen et al., J. Immunol. Methods 119:208-210 (1982) and by the SIV p27 and reverse transcriptase (RT) assays described by Chuang et al., FEBS Lett. 326:140-144 (1993), respectively.
SIVmac p27 core antigen levels were determined by an enzyme immunoassay provided by Coulter Corp. (Hialeah, Fla.). The assay was performed according to the manufacturer's specifications.

[2] = test system: HL 60; test: cytotoxicity of INO2 BA with and without BSO, HL 60; format: cell-based; settings: Homo sapiens, INO2 BA alone, 48 hours
Procedure: (§1) The concentration of BSO was 1 mM for all cell lines except HT 144, where the concentration was 0.25 mM. Cells were seeded in the recommended growth medium at a density of 1.5×10^4 cell/cm^2 into 2 cm^2 wells. Drugs were added simultaneously 4 hours after seeding, and incubation was continued for 48 hours at 37° C. in a 5% CO2 atmosphere. For assessment of drug effects cells were detached by trypsinization and counted in a hemacytometer.
(§2) Cell lines Nos. 1-4 were obtained from Dr. C. Benz, University of California, San Francisco. MDA 468 and MCF-7 human mammary cancer lines, MCF-7-B-ADR drug-resistant mammary cancer line, Du 145 drug-resistant human prostate cancer line, HT 144 human melanoma cell line, Hep-G2 human hepatocellular carcinoma line, and PC-12 rat pheochromocytoma line were obtained from the University of California Cell Culture Facility.

[3] = test system: MDA-468; test: cytotoxicity of INO2 BA with and without BSO, MDA-468; format: cell-based; settings: Homo sapiens
Procedure: as §1, §2

[4] = test system: PC-12; test: cytotoxicity of INO2 BA with and without BSO, PC-12; format: cell-based; settings: Rattus norvegicus, INO2 BA alone, 48 hours
Procedure: as §1, §2

[5] = test system: MCF-7; test: cytotoxicity of INO2 BA with and without BSO, MCF-7; format: cell-based; settings: Homo sapiens
Procedure: as §1, §2

[6] = metabolic conversion of INO2 BA to INH2 BA by 855-2 cells; format: in vitro ADME; settings: 855-2 cells; 120 μM INO2 BA, 37° C.; read-out: rate of reduction of the nitro to the amino end-product
Procedure: (§3) The cell metabolites of INO2 BA metabolism were identified. A suspension of 855-2 cells (6), 150×10^6 cells in ml of RPMI-1640 medium, was dosed with INO2 BA to a concentration of 120 μM, incubated at 37° C. for 18 hr, and then freeze-dried, extracted 3 times with EtOH (10 ml each time) for 30 min and centrifuged. The extract was rotary evaporated to dryness, redissolved in EtOH (3.0 ml), microfuged to remove small particles, and aliquots (200 μl) injected into HPLC. In control experiments, instead of incubating the drug-dosed cell suspension it was immediately frozen, freeze-dried and extracted. HPLC analyses were performed essentially as reported earlier, except the pH of the buffers was 4.3. Buki et al., FEBS Lett. 290:181-185 (1991). Upon sample injection the gradient started from 100%A to 100%B in 30 min, to 50%B/50%C in 15 min, to 100%C in 3 min. Retention times of synthetic standards were: 4-iodo-3-hydroxylaminobenzamide 18.7 min; 4-iodo-3-aminobenzamide ("INH2 BA") 24.7 min; INO2 BA 34.5 min; INOBA 36.5 min and 6,6'-diiodo-3,3'-dicarbamoylazoxybenzene 46.9 min.

[7] = test system: 855-2 cells; test: as above; format: in vitro ADME; settings: 120 μM INO2 BA, 18 hr, 37° C.
Procedure: as §3

[8] = test system: MCF-7-B-ADR; test: cytotoxicity of INO2 BA with and without BSO, MCF-7-B-ADR; format: cell-based; settings: Homo sapiens
Procedure: as §1, §2

[9] = test system: L 1210 cells; test: cytotoxic effect of IABP and INO2 BA, alone and combined, on L 1210 cell growth; format: cell-based, murine; settings: Mus musculus, L1210, 72 h; INO2 BA 64 μM, three days; read-out: decrease of L 1210 cell proliferation
Procedure: 64 μM INO2 BA decreased L 1210 cell proliferation by approximately 80% over a three day growth period.

[10] = non-toxicity in hamsters, intraperitoneal; format: in vivo
[11] = test system: MT-2 cells; test: effectiveness on human T-lymphoblastoid leukemia cells, MT-2; format: cell-based
Procedure: IV. Effectiveness of 4-(halogen)-3-nitro-benzamide compounds as tested with human T-lymphoblastoid leukemia cell lines in culture.
Cells (MT-2 cells, or, in case of 3-fluoro-4-nitro-benzamide, CEM-4 cells) were seeded at a density of 0.1×10^5 /ml; the drugs were added at the time of seeding. The cultures were incubated at 37° C. in a 5% CO2 atmosphere and the cells numbers were monitored by hemacytometer counting in 24 hr intervals.

[12] = test system: AZT-resistant rhesus macaque (MMU-23740)-derived SIV; settings: cited from earlier work
[13] = reduction by GSH and ascorbate in in vitro chemical tests; format: physicochemical
[14] = INO2 BA alone, 48 hours, read-out: I50

**Q.** For `NC(=O)c1ccc(I)c([N+](=O)[O-])c1` [INO2 BA, 4-iodo-3-nitrobenzamide], which “SIV p27 formation” value ([1]; INO2 BA alone, FIG. 5A-C) is on record?
**A.** almost complete inhibition

**Q.** What about the “effect of GSH depletion by BSO on inhibitory effect on SIV replication” value ([1]; with BSO, CEM ×174 cells) of the same molecule?
**A.** synergistically enhances

**Q.** What about the IC50 ([2]; read-out: I50) of the same molecule?
**A.** 70 µM

**Q.** And the IC100 ([2]; read-out: LD100)?
**A.** 125 µM

**Q.** What about the IC100 ([3]; 48 h, read-out: LD100) of the same molecule?
**A.** 180 µM

**Q.** And the IC50 [3, 14]?
**A.** 80 µM

**Q.** And the IC50 ([4]; read-out: I50)?
**A.** 60 µM

**Q.** And the IC100 ([4]; read-out: LD100)?
**A.** 120 µM

**Q.** And the IC100 ([5]; MCF7, 48 h, read-out: LD100)?
**A.** 200 µM

**Q.** And the IC50 ([5]; MCF7, INO2 BA alone, 48 hours, read-out: I50)?
**A.** 100 µM

**Q.** And the metabolised at 18 h, 120 µM [6]?
**A.** 2.2 ± 0.2%

**Q.** What about the identified metabolite [7] of the same molecule?
**A.** the only identified metabolite was INH2 BA

**Q.** What about the IC100 ([8]; 48 h, read-out: LD100) of the same molecule?
**A.** 220 µM

**Q.** What about the IC50 [8, 14] of the same molecule?
**A.** 90 µM

**Q.** And the inhibition at 64 µM [9]?
**A.** ~80%

**Q.** What about the toxic effects ([10]; 200 mg/kg intraperitoneally daily for 12 days) of the same molecule?
**A.** no toxic effects

**Q.** What about the toxic effects ([10]; 200 mg/kg intraperitoneally daily for 14 days, twelve hamsters) of the same molecule?
**A.** without toxic effects

**Q.** And the IC50 ([11]; Homo sapiens, MT2, concentration decreasing cell viability to 50% of control, 48 h incubation, read-out: I50)?
**A.** 70 µM

**Q.** What about the LD100 ([11]; zero viability after 48 hours of incubation) of the same molecule?
**A.** 190

**Q.** For `NC(=O)c1cccc(N=O)c1` [NOBA, 3-nitrosobenzamide], which “inhibition of infectious cycle” value [12] is on record?
**A.** equally inhibited

**Q.** And the “reduction to the corresponding hydroxyl amines” value [13]?
**A.** rapidly reduced
